Measured values from ChEMBL document CHEMBL1221212, “Small-molecule activation of neuronal cell fate” (Nat Chem Biol, 2008).
Activity calls are given as the source filed them. No cut-off for these calls is given here.

Key:
[1] = system: HCN; assay: Induction of rat HCN cell differentiation assessed as induction of neuronal reporter neuroD activity at 20 uM after 24 hrs by luciferase reporter gene assay; format: functional, cell-based
[2] = system: HCN; assay: Induction of rat HCN cell differentiation assessed as induction of neuronal reporter neuroD activity by luciferase reporter gene assay; format: functional, cell-based

SMILES	Activity [1]	Activity [2]
O=C(NC1CCC1)c1cc(-c2cccs2)on1	Active	–
O=C(NC1CCCCC1)c1cc(-c2cccs2)on1	Active	–
CNC(=O)c1cc(-c2cccs2)on1	Active	–
Cc1cc(C(=O)Nc2sc3c(c2C#N)CCCC3)no1	–	Dose-dependent effect
